Source: patent US9629918B2, “Folate receptor alpha binding ligands” (PURDUE RESEARCH FOUNDATION, priority 2012, dated 2017)

Columns and labels:
xenograft KB tumor = experiment: Optical imaging of athymic nude mice bearing KB tumor; type: in vivo, mouse; details: athymic nude mice with KB tumor, 4 h after administration
Procedure: (§1) Radioimages of murine models of human diseases were acquired with a Kodak Imaging Station coupled to a CCD camera operated with Kodak Molecular Imaging Software v 4.0 (Carestream Molecular Imaging). Abdomens were generally shielded with a lead plate in order to mask radioactivity emitted from the kidneys and bladder. The parameters used for radioimaging were: acquisition time=2 min, f-stop=4, focal plane=7, FOV=200, binning=4. For white light imaging, the parameters were: acquisition time=0.05 s, f-stop=11, focal plane=7, FOV=200, with no binning. For fluorescent imaging, abdomens were shielded with black construction paper to block fluorescence emitted from the kidneys and bladder. The parameters used were: acquisition time=30 s, excitation filter of λ=625 nm, emission filter of λ=700 nm, f-stop=4, focal plane=7, FOV=200, and binning=4.
Animals bearing tumors and/or inflammatory diseases were prepared as described above and injected intraperitoneally with DMTHF-DyLight™ 680 or folate-DyLight™ 680 conjugate (4 nmol in 100 μl of PBS). […] To evaluate accumulation of test compounds in specific organs/tissues, animals were dissected and organs/tissues of interest were excised and selected regions of interest were analyzed in the Kodak Imaging Station.

[1] = target: T1, FR-β positive rat peritoneal macrophages (Rattus norvegicus, UniProt D4A4S5); experiment: Flow cytometry analysis of dye conjugate binding to rat peritoneal macrophages; type: cell-based; details: 100 nM, 1 h at 37° C
T1 construct: from tissue; host or cells: CD11b+ peritoneal macrophages from Lewis rats
Procedure: (§2) KB cells were allowed to form monolayers in a T75 falcon flask for 48 hours in folate-deficient RPMI 1640 culture medium (FDRPMI). The confluent cells were trypsinized and 1×10^6 cells were transferred into each Eppendorf tube and centrifuged. Spent medium was removed and the pelleted cells were resuspended in fresh medium containing either DMTHF-DyLight™ 680 conjugate (100 nM) or folate-DyLight™ 680 conjugate (100 nM), either in the presence or absence of 100-fold molar excess of free folic acid. After incubation for 1 h at 37° C., the cells were washed 3 times with PBS (0.5 ml) and re-suspended in fresh PBS (0.4 ml). Bound fluorescence was analyzed using a flow cytometer (Cytomics F500; Beckman Coulter).
For similar analysis of rat peritoneal macrophages, experimental adjuvant-induced arthritis was induced in Lewis rats according to a previously reported procedure. After 25 days of arthritis induction, the rats were sacrificed by CO2 asphyxiation and peritoneal macrophages were harvested by injecting 60 mL PBS into the peritoneal cavity, and after brief massage of the abdomen, removing the cells using the injection syringe. Peritoneal cells were transferred to Eppendorf tubes, washed and stained as described above, except CD11b+ macrophages that were identified by co-staining with anti-CD 11b-PE (phycoerythrin-labeled antibody to CD11b).

FR-α positive KB cells [2] = target: T2, FR-α positive KB cells (Homo sapiens, UniProt P15328); experiment: Flow cytometry analysis of dye conjugate binding to KB cells; type: cell-based; details: 100 nM, 1 h at 37° C
T2 construct: KB cells, a human nasopharyngeal cancer cell line known to over-express FR-α; host or cells: KB cells
Procedure: as §2

[3] = test system: M109 tumor and DSS induced ulcerative colitis; experiment: Optical imaging of Balb/C mice bearing M109 tumor with DSS induced ulcerative colitis; type: in vivo, mouse; details: 4 h after administration
Procedure: as §1
Six week old female Balb/c mice were purchased from Harlan laboratories and maintained on a folate deficient diet (Harlan-Teklad, Wis.). After one week of acclimation, the mice were inoculated subcutaneously on the shoulder with 0.1 mL of M109 tumor cell suspension (1×10^6 cells). Subcutaneous tumor growth was monitored daily and on day 10 post tumor inoculation, 4% dextran sulfate sodium was added to their drinking water for 6 days to induce experimental ulcerative colitis. […]

FR-α positive KB cells [4] = target: T2, FR-α positive KB cells; experiment: Binding affinity of ^99mTc conjugates for KB cells (gamma counting)
Procedure: For evaluation of its affinity for FR-α, increasing concentrations of ^99mTc-DMTHF-chelate were incubated with KB cells, a human nasopharyngeal cancer cell line known to over-express FR-α. The level of bound radioactivity was analyzed using a gamma counter.
KB or CHO-β cells (100,000 cells/well in 500 μl) were plated into 24 well Falcon plates and allowed to form adherent monolayers (ca. 70% confluent) overnight. […] Cells were washed with PBS (3×1.0 mL), after which 0.25 M aqueous NaOH (0.5 ml) was added to dissolve the cells. After 10 minutes incubation, 450 μl from each well were transferred polypropylene tubes and counted for radioactivity in a γ counter (Packard Instrument Company). The binding affinity, Kd, was calculated using GraphPad Prism 4 by plotting cell bound radioactivity versus the concentration of radiotracer added.

KB cells = experiment: In vitro cytotoxicity assay ([^3H]-thymidine incorporation) in KB cells; type: cell-based, human; details: for IC50: 2 h pulse, additional 66 h incubation
Procedure: The in vitro toxicity of DMTHF-EC-119-TubH, compound 6a, (See FIG. 15) was analyzed in KB cells which were pulsed for 2 h with increasing concentrations of DMTHF-EC-119-TubH in the presence or absence of 100 μM folic acid. After washing to remove unbound conjugate, cells were incubated for an additional 66 h in fresh medium before addition of tritiated thymidine.
(§3) KB, RAW or IGROV cells were seeded in 24-well (100,000 cells/well) Falcon plates and allowed to form monolayers overnight. Spent medium was then replaced with fresh medium (0.5 mL) containing increasing concentrations of drug conjugate in the presence or absence of excess folic acid, and cells were incubated for an additional 2 h at 37° C. Cells were washed 3× with fresh medium (0.5 mL) and incubated in fresh medium (0.5 mL) for another 66 h at 37° C. Spent medium in each well was replaced with fresh medium (0.5 mL) containing [^3H]-thymidine ([…]) and the cells were incubated for additional 4 h at 37° C. to allow [^3H]-thymidine incorporation. Cells were then rinsed with medium (3×0.5 mL) and treated with 5% trichloroacetic acid (0.5 mL) for 10 min at room temperature. After replacing trichloroacetic acid with 0.25 N NaOH (0.5 mL), cells were transferred to individual scintillation vials containing Ecolume scintillation cocktail (3.0 mL) and counted in a liquid scintillation counter. IC50 values were calculated by plotting %[^3H]-thymidine incorporation versus log concentration of DMTHF-EC-119-drug conjugate in GraphPad Prism 4.

IGROV cells = experiment: In vitro cytotoxicity assay ([^3H]-thymidine incorporation) in IGROV cells; type: cell-based, human
Procedure: as §3

[5] = target: T3, FR-β positive human peripheral blood monocytes (Homo sapiens, UniProt P14207); experiment: Flow cytometry analysis of human peripheral blood monocytes; type: cell-based; details: 100 nM, 1 h at 37° C
T3 construct: Human peripheral blood monocytes were isolated from whole human blood by a known procedures; from tissue; host or cells: human peripheral blood mononuclear cells from healthy volunteers (CD11b+ monocytes)
Procedure: Human peripheral blood monocytes were isolated from whole human blood by a known procedures. Briefly, whole human blood in anticoagulant was collected from healthy volunteers following informed consent and the mononuclear cells were separated by Ficoll-Paque centrifugation. Cells were re-suspended in Eppendorf tubes in FDRPMI medium containing either DMTHF-Oregon Green™ 488 (100 nM) or folate-Oregon Green™ 488 (100 nM) plus CD 11b Tricolor to label human monocytes. For competition studies 100-fold molar excess of free folic acid was included in the suspension. After incubation for 1 h at 37° C., the cells were washed 3 times with PBS (0.5 ml) and re-suspended in fresh PBS (0.4 ml). Bound fluorescence was analyzed by flow cytometry as described above.

RAW 264.7 cells = experiment: In vitro cytotoxicity assay ([^3H]-thymidine incorporation) in RAW 264.7 cells; type: cell-based; details: murine macrophage cell line
Procedure: as §3

T2 sequence (P15328 25-234): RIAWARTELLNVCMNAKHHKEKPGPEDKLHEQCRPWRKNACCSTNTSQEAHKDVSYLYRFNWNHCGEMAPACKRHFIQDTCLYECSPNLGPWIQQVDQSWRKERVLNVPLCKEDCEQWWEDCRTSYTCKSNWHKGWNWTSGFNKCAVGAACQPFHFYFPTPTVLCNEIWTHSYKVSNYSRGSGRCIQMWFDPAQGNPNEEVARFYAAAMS
T3 sequence (P14207 17-230): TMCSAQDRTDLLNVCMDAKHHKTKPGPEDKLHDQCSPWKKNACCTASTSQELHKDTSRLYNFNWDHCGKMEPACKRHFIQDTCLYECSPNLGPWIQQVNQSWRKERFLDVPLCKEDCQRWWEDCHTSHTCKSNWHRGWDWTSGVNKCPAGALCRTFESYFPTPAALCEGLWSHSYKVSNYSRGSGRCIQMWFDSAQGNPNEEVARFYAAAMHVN
T1 sequence (D4A4S5 21-252): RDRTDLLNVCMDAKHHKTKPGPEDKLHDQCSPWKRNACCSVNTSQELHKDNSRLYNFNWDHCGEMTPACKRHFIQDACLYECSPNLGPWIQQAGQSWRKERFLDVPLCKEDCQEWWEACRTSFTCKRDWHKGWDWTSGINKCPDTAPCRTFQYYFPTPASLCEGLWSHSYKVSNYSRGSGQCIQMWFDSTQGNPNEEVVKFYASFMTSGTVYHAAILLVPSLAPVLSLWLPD

“N^5,N^10-Dimethyl Tetrahydrofolate-DyLight™ 680 [DMTHF-DyLight™ 680]” was tested, and the “fluorescent uptake, optical imaging” value (xenograft KB tumor) was “tumor selective uptake”, the “binding to CD11b+ rat peritoneal macrophages (FR-β)” value [1] was “no measurable affinity” and the “binding to FR-α+ human KB cells” value (FR-α positive KB cells [2]) was “binds avidly”. For the same molecule, the “fluorescent uptake, ROI analysis of organs/tissues” value [3] was “accumulated mainly in tumors”.

`Nc1nc2ncc(CNc3ccc(C(=O)N[C@H](CCC(=O)NC[C@H](N)C(=O)N[C@@H](CC(=O)O)C(=O)N[C@@H](CS)C(=O)O)C(=O)O)cc3)nc2c(=O)[nH]1` [EC20, pteroic acid-Glu-DAP-Asp-Cys] was tested, and the “competition of KB cell binding by free folic acid” value (FR-α positive KB cells [4]; 100-fold molar excess of free folic acid) was “competed by excess free folic acid” and the Kd (FR-α positive KB cells [4]; KB cells, 1 hour at 37° C, cell bound radioactivity, read-out: apparent Kd) was 23 nM.

`CCCC(=O)OCN(C(=O)[C@@H](NC(=O)[C@H]1CCCCN1C)C(C)CC)[C@H](C[C@@H](OC(C)=O)c1nc(C(=O)N[C@@H](Cc2ccc(O)cc2)C[C@H](C)C(=O)NNC(=O)OCCSSC[C@H](NC(=O)[C@H](CC(=O)O)NC(=O)[C@H](CC(=O)O)NC(=O)[C@H](CCCNC(=N)N)NC(=O)[C@H](CC(=O)O)NC(=O)CC[C@H](NC(=O)c2ccc(N(C)CC3CNc4nc(N)[nH]c(=O)c4N3C)cc2)C(=O)O)C(=O)O)cs1)C(C)C` (stereo partly shown) [DMTHF-EC-119-TubH, DMTHF-EC-119-tubulysin B hydrazide] was tested, and the “effect of excess folic acid on cytotoxicity” value (KB cells; 100 μM folic acid) was “inhibited by excess folic acid”, the IC50 (KB cells) was 41 nM and the IC50 (IGROV cells) was ~120000 nM.

In the case of `CN(CC1CNc2nc(N)[nH]c(=O)c2N1C)c1ccc(C(=O)N[C@@H](CCC(=O)O)C(=O)O)cc1` (stereo partly shown) [DMTHF, N^5,N^10-dimethyl-tetrahydrofolic acid], the “binding to CD11b+ rat peritoneal macrophages (FR-β)” value [1] is reported as “little affinity for FR-β”, the “shift in the CD11b+ subpopulation of human peripheral blood leucocytes (FR-β)” value [5] is reported as “lack of affinity” and the “binding to FR-α+ human KB cells” value (FR-α positive KB cells [2]) is reported as “binds FR-α”.

For `CCC1(O)CC2CN(CCc3c([nH]c4ccccc34)[C@](C(=O)OC)(c3cc4c(cc3OC)N(C)[C@@H]3[C@](O)(C(=O)NNC(=O)OCCSSC[C@H](NC(=O)[C@H](CC(=O)O)NC(=O)[C@H](CC(=O)O)NC(=O)[C@H](CCCNC(=N)N)NC(=O)[C@H](CC(=O)O)NC(=O)CC[C@H](NC(=O)c5ccc(N(C)CC6CNc7nc(N)[nH]c(=O)c7N6C)cc5)C(=O)O)C(=O)O)[C@@H](O)[C@@]5(CC)C=CCN6CC[C@@]43[C@H]65)C2)C1` (stereo partly shown) [DMTHF-EC-119-DAVBH, DMTHF-EC-119-desacetylvinblastine hydrazide], the “cytotoxicity in RAW 264.7 cells” value (RAW 264.7 cells) was “did not show any cytotoxicity”, the IC50 (KB cells) was 42 nM and the IC50 (IGROV cells) was ~1000 nM.

For “N^5,N^10-Dimethyl tetrahydrofolate-Oregon Green™ 488 [DMTHF-Oregon Green]”, the “shift in the CD11b+ subpopulation of human peripheral blood leucocytes (FR-β)” value [5] was “did not”.
